Results: US20240148821A1, “PHARMACEUTICAL USE OF CYCLIC PEPTIDE COMPOUND” (CHUGAI SEIYAKU KABUSHIKI KAISHA, priority 2021, published 2024)
Numbered stars: 1 amine (or outer) side, 2 acyl side, 3 side chain; on linkers, the order of the positions; unused ones are H or OH. Bridge positions count the residues as written; N and C are the ends. Square brackets hold non-standard residues; d marks the D form. Peptide text beside a SMILES is read from it. * marks the point of attachment. hPhe(3-Cl-4-CF3) = N[C@@H](CCc1ccc(C(F)(F)F)c(Cl)c1)C(=O)O; hPhe(3-F,4-CF3) = N[C@@H](CCc1ccc(C(F)(F)F)c(F)c1)C(=O)O; 3Oxa8azabicyclo(3.2.1)octane = C1CC2COCC1N2*; NEtPhe(2-Cl) = CCN[C@@H](Cc1ccccc1Cl)C(=O)O; NMePhe(4-Me) = CN[C@@H](Cc1ccc(C)cc1)C(=O)O; NMedβ3hAla = C[C@H](CC(=O)[*:2])N(C)[*:1]; X77 = O=C(CN(CCN1CCC(F)(F)CC1)[*:1])[*:2]; NMeGly(cPent) = CN[C@H](C(=O)O)C1CCCC1; X74 = CC(C)(O)C=CCN(CC(=O)[*:2])[*:1]; Ala(cPent) = N[C@@H](CC1CCCC1)C(=O)O; NMeCha = CN[C@@H](CC1CCCCC1)C(=O)O; NMehLeu = CN[C@@H](CCC(C)C)C(=O)O; Hyp = O=C(O)[C@@H]1C[C@@H](O)CN1; NEtLeu = CCN[C@@H](CC(C)C)C(=O)O; NMeChg = CN[C@H](C(=O)O)C1CCCCC1; NMeI = CC[C@H](C)[C@H](NC)C(=O)O; NMeD = CN[C@@H](CC(=O)O)C(=O)O; NMeL = CN[C@@H](CC(C)C)C(=O)O; NMeV = CN[C@H](C(=O)O)C(C)C; d(β3hA) = C[C@@H](N)CC(=O)O; NMeS = CN[C@@H](CO)C(=O)O; Morpholide = C1CN(*)CCO1; NMeA = CN[C@@H](C)C(=O)O; Piperidide = C1CCN(*)CC1; Pyrrolidide = C1CCN(*)C1; dNMeA = CN[C@H](C)C(=O)O; Ac5c = NC1(C(=O)O)CCCC1; Aze = O=C(O)[C@@H]1CCN1; Sar = CNCC(=O)O; Propyl = CCC*

Each molecule was assayed against protein-protein interaction between Kras and SOS1 (biotin-tagged human Kras loaded with GDP, His-tagged human SOS1) (Homo sapiens (Human), UniProt P01116, G12D) (assay: Protein-protein interaction inhibition between Kras and SOS1 (KrasG12D-SOS PPI) using AlphaScreen). Conditions: AlphaScreen; biotin-tagged human Kras loaded with GDP, His-tagged human SOS1; read-out: KRAS G12D-SOS PPI IC50.
Format: biochemical
Work on `CC[C@H](C)[C@@H]1NC(=O)[C@H](CCC(C)C)N(C)C(=O)C[C@@H](C(=O)N2CCOCC2)N(C)C(=O)[C@H](C2CCCC2)N(C)C(=O)C2(CCCC2)NC(=O)[C@@H]2CCCN2C(=O)[C@H](CCc2ccc(C(F)(F)F)c(Cl)c2)NC(=O)CN(C)C(=O)[C@H](CC2CCCCC2)N(C)C(=O)[C@@H]2CCN2C(=O)[C@H](C)NC1=O` [Compound 1171] ([NMehLeu]IA[Aze][NMeCha][Sar][hPhe(3-Cl-4-CF3)]P[Ac5c][NMeGly(cPent)][NMeD]-Morpholide; lactam N-11) yielded an IC50 of 0.99 nM.
`CC(C)C[C@H]1C(=O)N[C@@H](CC2CCCC2)C(=O)N(C)[C@@H](C)C(=O)N2CC[C@H]2C(=O)N(C)[C@@H](CC2CCCCC2)C(=O)N(C)CC(=O)N[C@@H](CCc2ccc(C(F)(F)F)c(Cl)c2)C(=O)N2CCC[C@H]2C(=O)NC2(CCCC2)C(=O)N(C)[C@@H](C(C)C)C(=O)N(C)[C@H](C(=O)N2CCCCC2)CC(=O)N1C` [Compound 84] ([NMeL][Ala(cPent)][NMeA][Aze][NMeCha][Sar][hPhe(3-Cl-4-CF3)]P[Ac5c][NMeV][NMeD]-Piperidide; lactam N-11) showed an IC50 of 73 nM.
In the case of `CCCOC[C@H]1C(=O)N(C)CC(=O)N[C@@H](CCc2ccc(C(F)(F)F)c(Cl)c2)C(=O)N2CCC[C@H]2C(=O)NC2(CCCC2)C(=O)N(C)[C@@H](C2CCCC2)C(=O)N(C)[C@H](C(=O)N2C3CCC2COC3)CC(=O)N(CC)[C@@H](CC(C)C)C(=O)N[C@@H]([C@@H](C)CC)C(=O)N(C)[C@@H](C)C(=O)N2CC[C@H]2C(=O)N1C` [Compound 1193] ([NEtLeu]I[NMeA][Aze][NMeS](Propyl)[Sar][hPhe(3-Cl-4-CF3)]P[Ac5c][NMeGly(cPent)][NMeD]-{3Oxa8azabicyclo(3.2.1)octane}; lactam N-11), the IC50 is reported as 2.1 nM.
Work on `CC[C@H](C)[C@@H]1NC(=O)[C@H](C)N(C)C(=O)C[C@@H](C)NC(=O)[C@H](C(C)C)N(C)C(=O)C2(CCCC2)NC(=O)[C@@H]2CCCN2C(=O)[C@H](CCc2ccc(C(F)(F)F)c(Cl)c2)NC(=O)[C@@H](C)N(C)C(=O)[C@H](CC2CCCCC2)N(C)C(=O)[C@@H]2CCN2C(=O)[C@@H]2CCN2C1=O` [Compound 2013] (cyclo([Ac5c][NMeV][d(β3hA)][NMeA]I[Aze][Aze][NMeCha][dNMeA][hPhe(3-Cl-4-CF3)]P)) yielded an IC50 of 150 nM.
`CC[C@H](C)[C@@H]1NC(=O)[C@H](CC(C)C)N(C)C(=O)C[C@@H](C(=O)N2CCCC2)N(C)C(=O)[C@H](C(C)C)N(C)C(=O)C2(CCCC2)NC(=O)[C@@H]2CCCN2C(=O)[C@H](CCc2ccc(C(F)(F)F)c(Cl)c2)NC(=O)CN(C)C(=O)[C@H](Cc2ccc(C)cc2)N(C)C(=O)[C@@H]2CCN2C(=O)[C@H](C)N(C)C1=O` [Compound 1866] ([NMeL]I[NMeA][Aze][NMePhe(4-Me)][Sar][hPhe(3-Cl-4-CF3)]P[Ac5c][NMeV][NMeD]-Pyrrolidide; lactam N-11) showed an IC50 of 2.8 nM.
For `CC[C@H](C)[C@@H]1NC(=O)[C@H](CC(C)C)N(C)C(=O)C[C@@H](C(=O)N2CCCCC2)N(C)C(=O)[C@H](C2CCCCC2)N(C)C(=O)C2(CCCC2)NC(=O)CN(CC=CC(C)(C)O)C(=O)[C@H](CCc2ccc(C(F)(F)F)c(Cl)c2)NC(=O)CN(C)C(=O)[C@H](CC2CCCCC2)N(C)C(=O)CN(C)C(=O)CN(C)C1=O` [Compound 2047, (11S,17S,26S,29S,33S,36S)-11-[2-[3-chloro-4-(trifluoromethyl)phenyl]ethyl]-36-cyclohexyl-17-(cyclohexylmethyl)-9-(4-hydroxy-4-methyl-pent-2-enyl)-29-isobutyl-15,18,21,24,30,34,37-heptamethyl-26[(1S)-1-methylpropyl]-33-(piperidine-1-carbonyl)-6,9,12,15,18,21,24,27,30,34,37-undecazaspiro[4.33]octatriacontane-7,10,13,16,19,22,25,28,31,35,38-undecone] ([NMeL]I[Sar][Sar][NMeCha][Sar][hPhe(3-Cl-4-CF3)][X74][Ac5c][NMeChg][NMeD]-Piperidide; lactam N-11), the IC50 was 5.7 nM.
Molecule `CC[C@H](C)[C@@H]1NC(=O)[C@H](CC(C)C)N(C)C(=O)C[C@@H](C(=O)N2CCCC2)N(C)C(=O)[C@H]([C@@H](C)CC)N(C)C(=O)C2(CCCC2)NC(=O)[C@@H]2CCCN2C(=O)[C@H](CCc2ccc(C(F)(F)F)c(F)c2)NC(=O)CN(C)C(=O)[C@H](CC2CCCCC2)N(C)C(=O)[C@@H]2CCN2C(=O)[C@H](C)N(C)C1=O` [Compound 868] ([NMeL]I[NMeA][Aze][NMeCha][Sar][hPhe(3-F,4-CF3)]P[Ac5c][NMeI][NMeD]-Pyrrolidide; lactam N-11) has an IC50 of 2.9 nM.
In the case of `CCO[C@@H]1C[C@H]2C(=O)NC3(CCCC3)C(=O)N(C)[C@@H](C3CCCC3)C(=O)N(C)[C@H](C)CC(=O)N(C)[C@@H](CC(C)C)C(=O)N[C@@H]([C@@H](C)CC)C(=O)N(C)CC(=O)N(C)CC(=O)N(C)[C@@H](CC3CCCCC3)C(=O)N(C)CC(=O)N[C@@H](CCc3ccc(C(F)(F)F)c(Cl)c3)C(=O)N2C1` [Compound 510] (cyclo([Ac5c][NMeGly(cPent)][NMedβ3hAla][NMeL]I[Sar][Sar][NMeCha][Sar][hPhe(3-Cl-4-CF3)][Hyp](Et))), the IC50 is reported as 4 nM.
`CC[C@H](C)[C@@H]1NC(=O)[C@H](CC(C)C)N(C)C(=O)C[C@@H](C(=O)N(C)C)N(C)C(=O)[C@H](C2CCCCC2)N(C)C(=O)C2(CCCC2)NC(=O)[C@@H]2CCCN2C(=O)[C@H](CCc2ccc(C(F)(F)F)c(Cl)c2)NC(=O)CN(C)C(=O)[C@H](Cc2ccc(C)cc2)N(C)C(=O)[C@@H]2CCN2C(=O)[C@H](C)N(C)C1=O` [Compound 1685] ([NMeL]I[NMeA][Aze][NMePhe(4-Me)][Sar][hPhe(3-Cl-4-CF3)]P[Ac5c][NMeChg][NMeD]-NMe2; lactam N-11) was tested, and the IC50 was 0.6 nM.
Molecule `CC[C@H](C)[C@@H]1NC(=O)[C@H](CC(C)C)N(C)C(=O)C[C@@H](C(=O)N2CCCCC2)N(C)C(=O)[C@H](C2CCCC2)N(C)C(=O)C2(CCCC2)NC(=O)[C@@H]2CCCN2C(=O)[C@H](CCc2ccc(C(F)(F)F)c(Cl)c2)NC(=O)CN(C)C(=O)[C@H](C2CCCC2)N(C)C(=O)[C@@H]2CCN2C(=O)[C@H](C)N(C)C1=O` [Compound 182] ([NMeL]I[NMeA][Aze][NMeGly(cPent)][Sar][hPhe(3-Cl-4-CF3)]P[Ac5c][NMeGly(cPent)][NMeD]-Piperidide; lactam N-11) has an IC50 of 0.98 nM.
With `CC[C@H](C)[C@@H]1NC(=O)[C@H](C)N(C)C(=O)C[C@@H](C(=O)N2CCCCC2)N(C)C(=O)[C@H](C(C)C)N(C)C(=O)C2(CCCC2)NC(=O)[C@H](Cc2ccccc2Cl)N(CC)C(=O)[C@H](CCc2ccc(C(F)(F)F)c(Cl)c2)NC(=O)CN(C)C(=O)[C@H](Cc2ccc(C)cc2)N(C)C(=O)CN(C)C(=O)CN(C)C1=O` [Compound 2166] ([NMeA]I[Sar][Sar][NMePhe(4-Me)][Sar][hPhe(3-Cl-4-CF3)][NEtPhe(2-Cl)][Ac5c][NMeV][NMeD]-Piperidide; lactam N-11) the IC50 was 330 nM.
`CC[C@H](C)[C@@H]1NC(=O)[C@H](CC(C)C)N(C)C(=O)C[C@@H](C(=O)N2CCCCC2)N(C)C(=O)[C@H](C2CCCCC2)N(C)C(=O)C2(CCCC2)NC(=O)CN(CCN2CCC(F)(F)CC2)C(=O)[C@H](CCc2ccc(C(F)(F)F)c(Cl)c2)NC(=O)CN(C)C(=O)[C@H](CC2CCCCC2)N(C)C(=O)CN(C)C(=O)CN(C)C1=O` [Compound 2022] ([NMeL]I[Sar][Sar][NMeCha][Sar][hPhe(3-Cl-4-CF3)][X77][Ac5c][NMeChg][NMeD]-Piperidide; lactam N-11) was tested, and the IC50 was 3.8 nM.
